This is an account of results in patent US20250129070A1, “BIFUNCTIONAL ANDROGEN RECEPTOR COMPOUNDS” (priority 2023, published 2025).

pEC50, pIC50: −log10 of the molar value. A value given as a limit tells only on which side of the number the result lay.

The subject of one assay is VCaP cells. Briefly: VCaP growth inhibition assay. It is filed as cell-based. The conditions noted are these: 30 pM R1881, 9 days, CTG. In outline:
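Growth read by CTG luminescence after 9-day exposure to compound (final 100 nM–10 fM, 1:5 steps) plus 30 pM R1881, in phenol red-free DMEM with 5% CSS. Cells pre-incubated 72 h before dosing; IC50 by nonlinear 4-parameter regression.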

The subject of the next assay is AR / CBP ternary complex. Briefly: Ternary complex formation assay (sandwich ELISA, AR capture / CBP detection) in VCaP cell lysates. The conditions noted are these: 1.5 hours treatment, sandwich ELISA (AR capture, CBP or p300 detection). It counts as cell-based. In outline: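 Anti-AR (AR 441)-coated plates capture AR from lysates of VCaP cells grown ≥3 days at 50K/well in 5% charcoal-stripped FBS, dosed with bifunctional for 1.5 h and lysed 30 min at 4 °C. Co-captured CBP/p300 is probed with rabbit mAb and HRP anti-rabbit, then QuantaRed fluorescence (570/585) is read at 0, 5 and 15 min.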

Consider `COc1cc(OC2C(C)(C)C(NC(=O)c3ccc(N4CC5(CCC(N6CCC(n7nc(N8CCCc9cc(C#N)c(C)cc98)c8c7CCN(C(C)=O)C8)CC6)CC5)C4)cc3)C2(C)C)ccc1C#N` (stereo not drawn) [Compound 455, 4-[7-[4-[5-acetyl-3-(6-cyano-7-methyl-3,4-dihydro-2H-quinolin-1-yl)-6,7-dihydro-4H-pyrazolo[4,3-c]pyridin-1-yl]-1-piperidyl]-2-azaspiro[3.5]nonan-2-yl]-N-[3-(4-cyano-3-methoxy-phenoxy)-2,2,4,4-tetramethyl-cyclobutyl]benzamide], for which, in the assay on VCaP cells, the pIC50 is 9.00 to 10.00. This compound gave a pEC50 in the assay on AR / CBP ternary complex of over 9.00.

As to `CC(=O)N1CCc2c(c(N3CCCc4cc(-c5cnn(C)c5)c(C(F)F)cc43)nn2CC2CCN(c3ncc(C(=O)NC4C(C)(C)C(Oc5ccc(C#N)c(Cl)c5)C4(C)C)cn3)CC2)C1` (stereo not drawn) [Compound 53, 2-[4-[[5-acetyl-3-[7-(difluoromethyl)-6-(1-methylpyrazol-4-yl)-3,4-dihydro-2H-quinolin-1-yl]-6,7-dihydro-4H-pyrazolo[4,3-c]pyridin-1-yl]methyl]-1-piperidyl]-N-[3-(3-chloro-4-cyano-phenoxy)-2,2,4,4-tetramethyl-cyclobutyl]pyrimidine-5-carboxamide], in the assay on VCaP cells, the pIC50 is under 7.00. Also, the pEC50 with AR / CBP ternary complex was over 9.00.

Regarding `COc1cc(OC2C(C)(C)C(NC(=O)c3ccc(N4CCC(CCc5ccc(-c6cc7cccc(-c8nn(C9CCOCC9)c9c8CN(C(C)=O)CC9)c7cn6)cn5)CC4)cc3)C2(C)C)ccc1C#N` (stereo not drawn) [Compound 245, 4-[4-[2-[5-[8-(5-acetyl-1-tetrahydropyran-4-yl-6,7-dihydro-4H-pyrazolo[4,3-c]pyridin-3-yl)-3-isoquinolyl]-2-pyridyl]ethyl]-1-piperidyl]-N-[3-(4-cyano-3-methoxy-phenoxy)-2,2,4,4-tetramethyl-cyclobutyl]benzamide], the pIC50 with VCaP cells is 9.00 to 10.00. In addition, in the assay on AR / CBP ternary complex, the negative logarithm of the EC50 (pEC50) is over 9.00.

In turn, `CC(=O)N1CCc2c(c(N3CCCc4cc(-c5cnn(C)c5)c(C(F)F)cc43)nn2C2CCN(C3CC4(CC(Oc5ncc(C(=O)NC6C(C)(C)C(Oc7ccc(C#N)c(Cl)c7)C6(C)C)cn5)C4)C3)CC2)C1` (stereo not drawn) [Compound 385, 2-[6-[4-[5-acetyl-3-[7-(difluoromethyl)-6-(1-methylpyrazol-4-yl)-3,4-dihydro-2H-quinolin-1-yl]-6,7-dihydro-4H-pyrazolo[4,3-c]pyridin-1-yl]-1-piperidyl]spiro[3.3]heptan-2-yl]oxy-N-[3-(3-chloro-4-cyano-phenoxy)-2,2,4,4-tetramethyl-cyclobutyl]pyrimidine-5-carboxamide] showed a negative logarithm of the IC50 (pIC50) with VCaP cells of 9.00 to 10.00. Further, the pEC50 in the assay on AR / CBP ternary complex was over 9.00.

The compound `Cn1cc(-c2cc3c(cc2C(F)F)N(c2cc(C4CCN(CC5CCN(c6ncc(C(=O)NC7C(C)(C)C(Oc8ccc(C#N)c(Cl)c8)C7(C)C)cn6)CC5)CC4)c4c(c2)n(C)c(=O)n4C)CCC3)cn1` (stereo not drawn) [Compound 214, N-[3-(3-chloro-4-cyano-phenoxy)-2,2,4,4-tetramethyl-cyclobutyl]-2-[4-[[4-[6-[7-(difluoromethyl)-6-(1-methylpyrazol-4-yl)-3,4-dihydro-2H-quinolin-1-yl]-1,3-dimethyl-2-oxo-benzimidazol-4-yl]-1-piperidyl]methyl]-1-piperidyl]pyrimidine-5-carboxamide] gave a pIC50 in the assay with VCaP cells of 7.00 to 9.00. The same compound showed a negative logarithm of the EC50 (pEC50) in the assay with AR / CBP ternary complex of over 9.00.

With `CC(=O)N1CCc2c(c(N3CCCc4cc(-c5cnn(C)c5)c(C)cc43)nn2C2CCN(CC3C(C)CN(c4ncc(C(=O)NC5C(C)(C)C(Oc6ccc(C#N)c(Cl)c6)C5(C)C)cn4)CC3C)CC2)C1` (stereo not drawn) [Compound 444, 2-[4-[[4-[5-acetyl-3-[7-methyl-6-(1-methylpyrazol-4-yl)-3,4-dihydro-2H-quinolin-1-yl]-6,7-dihydro-4H-pyrazolo[4,3-c]pyridin-1-yl]-1-piperidyl]methyl]-3,5-dimethyl-1-piperidyl]-N-[3-(3-chloro-4-cyano-phenoxy)-2,2,4,4-tetramethyl-cyclobutyl]pyrimidine-5-carboxamide], in the assay with VCaP cells, the pIC50 was 9.00 to 10.00. Besides, in the assay with AR / CBP ternary complex, the pEC50 was over 9.00.

For `COc1cc(OC2C(C)(C)C(NC(=O)c3ccc(N4CCN(C5CCN(c6ccc(-c7cc8cccc(-c9nn(C%10CCOCC%10)c%10c9CN(C(C)=O)CC%10)c8cn7)cn6)CC5)CC4)cc3)C2(C)C)ccc1C#N` (stereo not drawn) [Compound 321, 4-[4-[1-[5-[8-(5-acetyl-1-tetrahydropyran-4-yl-6,7-dihydro-4H-pyrazolo[4,3-c]pyridin-3-yl)-3-isoquinolyl]-2-pyridyl]-4-piperidyl]piperazin-1-yl]-N-[3-(4-cyano-3-methoxy-phenoxy)-2,2,4,4-tetramethyl-cyclobutyl]benzamide], the pIC50 in the assay on VCaP cells was at least 10.00. In the assay on AR / CBP ternary complex, the pEC50 is over 9.00.

For the compound `Cn1c(=O)sc2ccc(N3CCCc4cc(-c5ccc(CCC6CCN(c7ncc(C(=O)NC8C(C)(C)C(Oc9ccc(C#N)c(Cl)c9)C8(C)C)cn7)CC6)nc5)ncc43)cc21` (stereo not drawn) [Compound 237, N-[3-(3-chloro-4-cyano-phenoxy)-2,2,4,4-tetramethyl-cyclobutyl]-2-[4-[2-[5-[1-(3-methyl-2-oxo-1,3-benzothiazol-5-yl)-3,4-dihydro-2H-1,7-naphthyridin-6-yl]-2-pyridyl]ethyl]-1-piperidyl]pyrimidine-5-carboxamide], the pIC50 in the assay with VCaP cells is 7.00 to 9.00. In the assay with AR / CBP ternary complex, this compound had a negative-log EC50 (pEC50) of over 9.00.

In turn, `Cn1cc(-c2cc3cccc(-c4cc(C5CCN(CC6CCN(c7ncc(C(=O)NC8C(C)(C)C(Oc9ccc(C#N)c(Cl)c9)C8(C)C)cn7)CC6)CC5)c5c(c4)n(C)c(=O)n5C)c3cn2)cn1` (stereo not drawn) [Compound 213, N-[3-(3-chloro-4-cyano-phenoxy)-2,2,4,4-tetramethyl-cyclobutyl]-2-[4-[[4-[1,3-dimethyl-6-[3-(1-methylpyrazol-4-yl)-8-isoquinolyl]-2-oxo-benzimidazol-4-yl]-1-piperidyl]methyl]-1-piperidyl]pyrimidine-5-carboxamide] gave a pIC50 in the assay on VCaP cells of 9.00 to 10.00. In the assay on AR / CBP ternary complex, this compound gave a pEC50 of under 7.00.

`CC(=O)N1CCc2c(c(Nc3ccc(-c4cnn(C)c4)cc3F)nn2CCOCCN2CCN(c3ncc(C(=O)NC4C(C)(C)C(Oc5ccc(C#N)c(Cl)c5)C4(C)C)cn3)CC2)C1` (stereo not drawn) [Compound 1, 2-[4-[2-[2-[5-acetyl-3-[2-fluoro-4-(1-methylpyrazol-4-yl)anilino]-6,7-dihydro-4H-pyrazolo[4,3-c]pyridin-1-yl]ethoxy]ethyl]piperazin-1-yl]-N-[3-(3-chloro-4-cyano-phenoxy)-2,2,4,4-tetramethyl-cyclobutyl]pyrimidine-5-carboxamide]: the pIC50 in the assay on VCaP cells is 9.00 to 10.00. Moreover, the pEC50 in the assay with AR / CBP ternary complex is over 9.00.

Compound `CC(=O)N1CCc2c(c(N3CCCc4cc(-c5cnn(C)c5)c(C(F)F)cc43)nn2C2CCC3(CC2)CN(C2CCN(c4ncc(C(=O)NC5C(C)(C)C(Oc6ccc(C#N)c(Cl)c6)C5(C)C)cn4)CC2)C3)C1` (stereo not drawn) [Compound 371, 2-[4-[7-[5-acetyl-3-[7-(difluoromethyl)-6-(1-methylpyrazol-4-yl)-3,4-dihydro-2H-quinolin-1-yl]-6,7-dihydro-4H-pyrazolo[4,3-c]pyridin-1-yl]-2-azaspiro[3.5]nonan-2-yl]-1-piperidyl]-N-[3-(3-chloro-4-cyano-phenoxy)-2,2,4,4-tetramethyl-cyclobutyl]pyrimidine-5-carboxamide] had a pIC50 in the assay with VCaP cells of at least 10.00. The compound also showed a negative-log EC50 (pEC50) in the assay with AR / CBP ternary complex of over 9.00.

As to `CC(=O)N1CCc2c(c(N3CCCc4cc(-c5cnn(C)c5)c(C(F)F)cc43)nn2C2CCN(C[C@@H]3CCN(c4ncc(C(=O)NC5C(C)(C)C(Oc6ccc(C#N)c(Cl)c6)C5(C)C)cn4)C[C@@H]3C)CC2)C1` (stereo partly drawn) [Compound 363], the pIC50 with VCaP cells was at least 10.00. For the same compound, in the assay with AR / CBP ternary complex, the pEC50 was over 9.00.

On to `CC(=O)N1CCc2c(c(N3CCCc4cc(-c5cnn(C)c5)c(C)cc43)nn2C2CCN(CC3CCN(c4ncc(C(=O)NC5C(C)(C)C(Oc6ccc(C#N)c(Cl)c6)C5(C)C)cn4)CC3(C)C)CC2)C1` (stereo not drawn) [Compound 446, 2-[4-[[4-[5-acetyl-3-[7-methyl-6-(1-methylpyrazol-4-yl)-3,4-dihydro-2H-quinolin-1-yl]-6,7-dihydro-4H-pyrazolo[4,3-c]pyridin-1-yl]-1-piperidyl]methyl]-3,3-dimethyl-1-piperidyl]-N-[3-(3-chloro-4-cyano-phenoxy)-2,2,4,4-tetramethyl-cyclobutyl]pyrimidine-5-carboxamide], for which, in the assay on VCaP cells, the pIC50 is 9.00 to 10.00. In the assay on AR / CBP ternary complex, the pEC50 is over 9.00.

In the assay on VCaP cells, `CC(=O)N1CCc2c(c(N3CCCc4ccccc43)nn2C2CCN(CC3CCN(c4ncc(C(=O)NC5C(C)(C)C(Oc6ccc(C#N)c(Cl)c6)C5(C)C)cn4)CC3)CC2)C1` (stereo not drawn) [Compound 158, 2-[4-[[4-[5-acetyl-3-(3,4-dihydro-2H-quinolin-1-yl)-6,7-dihydro-4H-pyrazolo[4,3-c]pyridin-1-yl]-1-piperidyl]methyl]-1-piperidyl]-N-[3-(3-chloro-4-cyano-phenoxy)-2,2,4,4-tetramethyl-cyclobutyl]pyrimidine-5-carboxamide] showed a pIC50 of at least 10.00. The pEC50 with AR / CBP ternary complex is 8.00 to 9.00.

`CC(=O)N1CCc2c(c(N3CCCc4cc(-c5cnn(C)c5)c(C(F)F)cc43)nn2C2CCN(CCC3CCN(c4ncc(C(=O)NC5C(C)(C)C(Oc6ccc(C#N)c(Cl)c6)C5(C)C)cn4)CC3)CC2)C1` (stereo not drawn) [Compound 174, 2-[4-[2-[4-[5-acetyl-3-[7-(difluoromethyl)-6-(1-methylpyrazol-4-yl)-3,4-dihydro-2H-quinolin-1-yl]-6,7-dihydro-4H-pyrazolo[4,3-c]pyridin-1-yl]-1-piperidyl]ethyl]-1-piperidyl]-N-[3-(3-chloro-4-cyano-phenoxy)-2,2,4,4-tetramethyl-cyclobutyl]pyrimidine-5-carboxamide] gave a pIC50 in the assay on VCaP cells of at least 10.00. Besides, the pEC50 with AR / CBP ternary complex was over 9.00.
